Values joined by “and” are separate entries in the source; they are usually repeats but may differ in a detail not shown here. Equal values may be shown once. Read-outs that look alike come from different tables or passages of the source.
Experiments:
[1] = tested on: SKES cells (Ewing Sarcoma cell line); test: CCK-8 tetrazolium tumor cell growth inhibition, SKES; assay type: cell-based; conditions: Homo sapiens
Method: A modified tetrazolium salt assay using the CCK-8 kit (Sigma-Aldrich; St Louis, Mo.) was used to measure the inhibition of human tumor cell growth. Tumor cells (5000-7500 per well) were added to 96 well plates and allowed to attach for 4-5 hours. Compounds were serially diluted and added in triplicate at a concentration of 0.02 to 5 μM. DMSO was included as a vehicle control. Cells were incubated in the presence of compound for 3 days. After incubation CCK-8 reagent was added to each well and incubated for 2-4 hours. Viable cells were quantitated spectrophotometrically at a wavelength of 450 nm. Percent viability of each sample was calculated from the A450 values as follows: % viability=(A450 nm sample/A450 nm DMSO-treated cells×100). […] IC50 activities of particular compounds were determined using SKES cells (Ewing Sarcoma cell line).

[2] = rat liver microsome, no cofactor, 60 min
[3] = dog liver microsome, no cofactor, 60 min
[4] = mouse liver microsome, no cofactor, 60 min
[5] = human liver microsome, no cofactor, 60 min
[6] = Pharmacokinetics after IV and oral administration; assay type: in vivo; conditions: BALB/c mice or Sprague Dawley rats
Method: Certain pharmacokinetics parameters were determined for certain compounds in vivo for intravenous and oral administration. Briefly, compounds were formulated and administered using IV bolus, continuous IV infusion or oral administration. Blood was collected at multiple time points over 24 hours and processed into plasma. Plasma was analyses for parent using LC/MS/MS. Certain parameters for certain compounds were obtained in duplicate.

[7] = 72 h, SKES cells, 3 days with compound, CCK-8 (TABLE 3)
[8] = 20 mg/kg po, labrasol/tetraglycol 9:1
[9] = 20 mg/kg po, labrasol:tetraglycol:water 72:8:20
[10] = plasma, iv, 5 mg/kg, 5 mg/kg IV, captisol
[11] = plasma, po, 20 mg/kg, 20 mg/kg po, labrasol/tetraglycol 9:1
[12] = plasma, po, 20 mg/kg, 20 mg/kg po, labrasol:tetraglycol:water 72:8:20

Row | Compound | IC50 [1, 7] | IC50 ([1]; SKES, ES, EWS-FLI1 Type 2) | further results
1 | CS(=O)(=O)c1ccc(C(=O)CC2(O)C(=O)Nc3c(Cl)ccc(Cl)c32)cc1 (racemic) [Cmpd 4, 4,7-Dichloro-3-hydroxy-3-(2-(4-(methylsulfonyl)phenyl)-2-oxoethyl)indolin-2-one] | > 5 µM | > 5 µM | –
2 | O=C(CC1(O)C(=O)Nc2c(Cl)ccc(Cl)c21)c1ccc(N2CC2)cc1 (racemic) [Cmpd 8, 3-(2-(4-(Aziridin-1-yl)phenyl)-2-oxoethyl)-4,7-dichloro-3-hydroxyindolin-2-one] | < 5 µM | < 5 µM | –
3 | CC(C)c1ccc(C(=O)CC2(O)C(=O)Nc3c(Cl)ccc(Cl)c32)cc1 (racemic) [Cmpd 9, 4,7-Dichloro-3-hydroxy-3-(2-(4-isopropylphenyl)-2-oxoethyl)indolin-2-one] | > 5 µM | > 5 µM | –
4 | O=C(CC1(O)C(=O)Nc2c(Cl)ccc(Cl)c21)c1ccc(-n2cccn2)cc1 (racemic) [Cmpd 16, 3-(2-(4-(1H-Pyrazol-1-yl)phenyl)-2-oxoethyl)-4,7-dichloro-3-hydroxyindolin-2-one] | > 5 µM | > 5 µM | –
5 | NS(=O)(=O)c1ccc(C(=O)CC2(O)C(=O)Nc3c(Cl)ccc(Cl)c32)cc1 (racemic) [Cmpd 20, 4-(2-(4,7-Dichloro-3-hydroxy-2-oxoindolin-3-yl)acetyl)benzenesulfonamide] | > 5 µM | > 5 µM | –
6 | O=C(CC1(O)C(=O)Nc2c(Cl)ccc(Cl)c21)c1ccc(N2CCCC2)c(F)c1 (racemic) [Cmpd 21, 4,7-Dichloro-3-(2-(3-fluoro-4-(pyrrolidin-1-yl)phenyl)-2-oxoethyl)-3-hydroxyindolin-2-one] | > 5 µM | > 5 µM | –
7 | O=C(CC1(O)C(=O)Nc2c(Cl)ccc(Cl)c21)c1ccc(N2CCC2)cc1 (racemic) [Cmpd 22, 3-(2-(4-(Azetidin-1-yl)phenyl)-2-oxoethyl)-4,7-dichloro-3-hydroxyindolin-2-one] | < 5 µM | < 5 µM | –
8 | COC1CCC(C(=O)CC2(O)C(=O)Nc3c(Cl)ccc(Cl)c32)CC1 (racemic) [Cmpd 23, 4,7-Dichloro-3-hydroxy-3-(2-(4-methoxycyclohexyl)-2-oxoethyl)indolin-2-one] | > 5 µM | > 5 µM | –
9 | COC12CCC(C(=O)CC3(O)C(=O)Nc4c(Cl)ccc(Cl)c43)(CC1)CC2 (racemic) [Cmpd 24, 4,7-Dichloro-3-hydroxy-3-(2-(4-methoxybicyclo[2.2.2]octan-1-yl)-2-oxoethyl)indolin-2-one] | > 5 µM | > 5 µM | –
10 | CN(C)C12CCC(C(=O)CC3(O)C(=O)Nc4c(Cl)ccc(Cl)c43)(CC1)CC2 (racemic) [Cmpd 25, 4,7-Dichloro-3-(2-(4-(dimethylamino)bicyclo[2.2.2]octan-1-yl)-2-oxoethyl)-3-hydroxyindolin-2-one] | > 5 µM | > 5 µM | –
11 | O=C(CC1(O)C(=O)Nc2c(Cl)ccc(Cl)c21)c1ccc(C2CC2)c(F)c1 (racemic) [Cmpd 26, 4,7-Dichloro-3-(2-(4-cyclopropyl-3-fluorophenyl)-2-oxoethyl)-3-hydroxyindolin-2-one] | < 5 µM | < 5 µM | –
12 | O=C(CC1(O)C(=O)Nc2c(Cl)ccc(Cl)c21)c1ccc(C2CC2)cc1F (racemic) [Cmpd 27, 4,7-Dichloro-3-(2-(4-cyclopropyl-2-fluorophenyl)-2-oxoethyl)-3-hydroxyindolin-2-one] | < 5 µM | < 5 µM | –
13 | O=C(CC1(O)C(=O)Nc2c(Cl)ccc(Cl)c21)c1ccc(N2CCOCC2)cc1 (racemic) [Cmpd 29, 4,7-dichloro-3-hydroxy-3-(2-(4-moprholinophenyl)-2-oxoethyl)indolin-2-one] | > 5 µM | > 5 µM | –
14 | O=C(CC1(O)C(=O)Nc2c(Cl)ccc(Cl)c21)c1ccncc1 (racemic) [Cmpd 30, 4,7-dichloro-3-hydroxy-3-(2-oxo-2-(pyridin-4-yl)ethyl)indolin-2-one] | > 5 µM | > 5 µM | –
15 | O=C(CC1(O)C(=O)Nc2c(Cl)ccc(Cl)c21)c1cccnc1 (racemic) [Cmpd 31, 4,7-dichloro-3-hydroxy-3-(2-oxo-2-(pyridin-3-yl)ethyl)indolin-2-one] | > 5 µM | > 5 µM | –
16 | O=C(CC1(O)C(=O)Nc2c(Cl)ccc(Cl)c21)c1ccccn1 (racemic) [Cmpd 32, 4,7-dichloro-3-hydroxy-3-(2-oxo-2-(pyridin-2-yl)ethyl)indolin-2-one] | > 5 µM | > 5 µM | –
17 | NC(=O)c1ccc(C(=O)CC2(O)C(=O)Nc3c(Cl)ccc(Cl)c32)cc1 (racemic) [Cmpd 33, 4-(2-(4,7-dichloro-3-hydroxy-2-oxoindolin-3-yl)acetyl)benzamide] | > 5 µM | > 5 µM | –
18 | O=C(CC1(O)C(=O)Nc2c(Cl)ccc(Cl)c21)c1ccc(O)cc1 (racemic) [Cmpd 34, 4,7-dichloro-3-hydroxy-3-(2-(4-hydroxyphenyl)-2-oxoethyl)indolin-2-one] | > 5 µM | > 5 µM | –
19 | O=C(CC1(O)C(=O)Nc2c(Cl)ccc(Cl)c21)c1ccc(F)c(F)c1 (racemic) [Cmpd 35, 4,7-dichloro-3-(2-(3,4-difluorophenyl)-2-oxoethyl)-3-hydroxyindolin-2-one] | > 5 µM | > 5 µM | –
20 | COc1ccc(C(=O)CC2(O)C(=O)Nc3c(Cl)ccc(Cl)c32)cc1 (single isomer, unassigned) [Cmpd 3, 4,7-Dichloro-3-hydroxy-3-[2-(4-methoxyphenyl-2-oxoethyl)]-1,3-dihydroindol-2-one] | – | – | Remaining (NCF = 60 min) [2]: 92.6%; Remaining (NCF = 60 min) [3]: 100.1%; Remaining (NCF = 60 min) [4]: 97.5%; Remaining (NCF = 60 min) [5]: 112.6%
21 | CNc1ccc(C(=O)CC2(O)C(=O)Nc3c(Cl)ccc(Cl)c32)cc1 (single isomer, unassigned) [Cmpd 5, 4,7-dichloro-3-hydroxy-3-[2-[4-(methylamino)phenyl]-2-oxoethyl]-1H-indol-2-one] | – | – | AUC ([6]; 5 mg/kg IV, captisol): 2324 h * (ng/mL) and 3207 h * (ng/mL); AUC [6, 8]: 5192 h * (ng/mL) and 4939 h * (ng/mL); Tmax [6, 8]: 0.5 h; % F [6, 9]: 39%; AUC [6, 9]: 4354 h * (ng/mL) and 4081 h * (ng/mL); Tmax [6, 9]: 0.5 h; Cmax [6, 10]: 13000 ng/mL; half-life [6, 10]: 1.7 h; Tmax ([6]; plasma, iv, 5 mg/kg, 5 mg/kg IV, captisol, read-out: Tmax): 0.033 h; Cmax [6, 11]: 2180 ng/mL; bioavailability [6, 11]: 56%; half-life [6, 11]: 3.1 h; Tmax ([6]; plasma, po, 20 mg/kg, 20 mg/kg po, labrasol/tetraglycol 9:1, read-out: Tmax): 1 h; Cmax [6, 12]: 1570 ng/mL; bioavailability [6, 12]: 47%; half-life [6, 12]: 2.8 h; Tmax ([6]; plasma, po, 20 mg/kg, 20 mg/kg po, labrasol:tetraglycol:water 72:8:20, read-out: Tmax): 1 h
22 | O=C(CC1(O)C(=O)Nc2c(Cl)ccc(Cl)c21)c1ccc(C2CC2)cc1 (single isomer, unassigned) [Cmpd 13, 4,7-Dichloro-3-(2-(4-cyclopropylphenyl)-2-oxoethyl)-3-hydroxyindolin-2-one] | > 5 µM | > 5 µM | Remaining (NCF = 60 min) [2]: 97.0%; Remaining (NCF = 60 min) [3]: 98.4%; Remaining (NCF = 60 min) [4]: 85.6%; Remaining (NCF = 60 min) [5]: 105.1%
23 | O=C(CC1(O)C(=O)Nc2c(Cl)ccc(Cl)c21)c1ccc(C2CC2)c(F)c1 (single isomer, unassigned) [Cmpd 36, 4,7-Dichloro-3-(2-(4-cyclopropyl-3-fluorophenyl)-2-oxoethyl)-3-hydroxyindolin-2-one] | – | – | Remaining (NCF = 60 min) [5]: 104.0%
24 | O=C(CC1(O)C(=O)Nc2c(Cl)ccc(Cl)c21)c1ccc(C2CC2)cc1F (single isomer, unassigned) [Cmpd 38, 4,7-Dichloro-3-(2-(4-cyclopropyl-2-fluorophenyl)-2-oxoethyl)-3-hydroxyindolin-2-one] | – | – | Remaining (NCF = 60 min) [5]: 99.5%
25 | O=C(CC1(O)C(=O)Nc2c(Cl)ccc(Cl)c21)c1ccc(N2CCCC2)cc1 (stereo not drawn) [Cmpd 17, 4,7-Dichloro-3-hydroxy-3-(2-oxo-2-(4-(pyrrolidin-1-yl)phenyl)ethyl)indolin-2-one] | > 5 µM | > 5 µM | –
